Data reported in ChEMBL document CHEMBL1201862, “PubChem BioAssay data set” (2004).
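In this assay, cells in 96-well plates receive the compound at five concentrations for 48 hours. Endpoints are linearly interpolated between the surrounding concentrations. Here, GI50 denotes the concentration required for 50% inhibition of growth.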 The source made the active and inactive calls. Cut-off read from the data, not from the text of the source: active = GI50 up to about 1.1 µM and inactive = higher.

Columns and labels:
Assay in all cases: inhibition of tumour cell growth, NCI panel, 48 h
MDA-MB-231 = test system: MDA-MB-231
NCI-H460 = test system: NCI-H460
MCF7 = test system: MCF7
ACHN = test system: ACHN
HL-60 = test system: HL-60
A498 = test system: A498
MOLT-4 = test system: MOLT-4
HOP-62 = test system: HOP-62
U-251 = test system: U-251
SR = test system: SR
T47D = test system: T47D
Hs-578T = test system: Hs-578T
KM12 = test system: KM12
SK-MEL-2 = test system: SK-MEL-2
NCI-H23 = test system: NCI-H23
CAKI-1 = test system: CAKI-1
HT-29 = test system: HT-29
UACC-257 = test system: UACC-257
NCI/ADR-RES = test system: NCI/ADR-RES
Malme-3M = test system: Malme-3M

| SMILES | GI50 (MDA-MB-231) | GI50 (NCI-H460) | GI50 (MCF7) | GI50 (ACHN) | GI50 (HL-60) | GI50 (A498) | GI50 (MOLT-4) | GI50 (HOP-62) | GI50 (U-251) | GI50 (SR) | GI50 (T47D) | GI50 (Hs-578T) | GI50 (KM12) | GI50 (SK-MEL-2) | GI50 (NCI-H23) | GI50 (CAKI-1) | GI50 (HT-29) | GI50 (UACC-257) | GI50 (NCI/ADR-RES) | GI50 (Malme-3M) |
| --- | --- | --- | --- | --- | --- | --- | --- | --- | --- | --- | --- | --- | --- | --- | --- | --- | --- | --- | --- | --- |
| CO[C@H](C)[C@](O)(C(=O)OCC1=CCN2CC[C@@H](O)[C@H]12)C(C)C | > 100 µM (inactive) | 28.5 µM (inactive) | > 100 µM (inactive) | 73.3 µM (inactive) | > 10 µM (inactive) | > 100 µM (inactive) | > 100 µM (inactive) | > 100 µM (inactive) | > 100 µM (inactive) | > 100 µM (inactive) | > 100 µM (inactive) | > 100 µM (inactive) | > 100 µM (inactive) | > 100 µM (inactive) | > 100 µM (inactive) | > 100 µM (inactive) | > 100 µM (inactive) | > 100 µM (inactive) | > 100 µM (inactive) | – |
| CC1=NN(c2cccc(Cl)c2)C2(C1=Cc1ccc(O)cc1)C(Cl)C(=O)N2c1nc2ccccc2s1 (stereo not given) | 24.6 µM (inactive) | 24.9 µM (inactive) | 17.8 µM (inactive) | 19.7 µM (inactive) | 26.4 µM (inactive) | 13.6 µM (inactive) | 14.2 µM (inactive) | 20.9 µM (inactive) | 20 µM (inactive) | 19.9 µM (inactive) | 15.8 µM (inactive) | 40.6 µM (inactive) | 22.4 µM (inactive) | 20.4 µM (inactive) | 16 µM (inactive) | 27.1 µM (inactive) | 21.7 µM (inactive) | 25.5 µM (inactive) | 21.4 µM (inactive) | – |
| Cn1c(=O)c2c(nc(NCCCCl)n2CC(=O)O)n(C)c1=O | > 100 µM (inactive) | > 100 µM (inactive) | > 100 µM (inactive) | > 100 µM (inactive) | > 100 µM (inactive) | > 100 µM (inactive) | 2.74 µM (inactive) | > 100 µM (inactive) | > 100 µM (inactive) | < 0.01 µM (active) | > 100 µM (inactive) | > 100 µM (inactive) | > 100 µM (inactive) | > 100 µM (inactive) | > 100 µM (inactive) | > 100 µM (inactive) | > 100 µM (inactive) | > 100 µM (inactive) | > 100 µM (inactive) | – |
| N#CC(C#N)=C/C=C/c1c(Cl)cccc1Cl | 1.85 µM (inactive) | 1.87 µM (inactive) | 1.94 µM (inactive) | 1.6 µM (inactive) | 0.698 µM (active) | 2.99 µM (inactive) | 1.88 µM (inactive) | 2.74 µM (inactive) | 1.81 µM (inactive) | 1.7 µM (inactive) | 2.24 µM (inactive) | 1.97 µM (inactive) | 1.58 µM (inactive) | 1.7 µM (inactive) | 1.47 µM (inactive) | 1.93 µM (inactive) | 1.7 µM (inactive) | 1.58 µM (inactive) | 1.96 µM (inactive) | 1.73 µM (inactive) |
| N#Cc1c(Cl)c2ccccc2n2c1nc1ccccc12 | 23.8 µM (inactive) | 69.7 µM (inactive) | 39.9 µM (inactive) | 18 µM (inactive) | 5.33 µM (inactive) | > 100 µM (inactive) | 30.3 µM (inactive) | 38 µM (inactive) | 92.7 µM (inactive) | 50 µM (inactive) | 27.2 µM (inactive) | 17.7 µM (inactive) | 34.1 µM (inactive) | 37.3 µM (inactive) | 24.2 µM (inactive) | 21.9 µM (inactive) | 20.3 µM (inactive) | 42.4 µM (inactive) | 23.3 µM (inactive) | – |
| C/C=C/C(O)P(=O)(OC)OC (stereo not given) | 0.428 µM (active) | 0.272 µM (active) | 0.269 µM (active) | 0.344 µM (active) | 0.256 µM (active) | 0.316 µM (active) | 0.3 µM (active) | 0.628 µM (active) | 0.307 µM (active) | 0.257 µM (active) | 0.334 µM (active) | 0.213 µM (active) | 0.278 µM (active) | 0.324 µM (active) | 0.307 µM (active) | 0.589 µM (active) | 0.33 µM (active) | 0.256 µM (active) | 0.473 µM (active) | 0.296 µM (active) |
| c1cc(-c2ccc(Oc3ccc(-c4ccncc4)cc3)cc2)ccn1 | 18.3 µM (inactive) | 3.93 µM (inactive) | 4.26 µM (inactive) | 9.48 µM (inactive) | 2.18 µM (inactive) | 6.76 µM (inactive) | 2.99 µM (inactive) | 23.6 µM (inactive) | 4.01 µM (inactive) | 3.15 µM (inactive) | 5.13 µM (inactive) | 12.8 µM (inactive) | 5.22 µM (inactive) | 5.38 µM (inactive) | 3.18 µM (inactive) | 3.22 µM (inactive) | 3.7 µM (inactive) | 4.91 µM (inactive) | 3.01 µM (inactive) | 6.82 µM (inactive) |
| Cn1c2ccccc2c2cc(-c3ccccc3)c3c(c21)C(=O)C=CC3=O | 23.2 µM (inactive) | 20.6 µM (inactive) | 12.3 µM (inactive) | 19.8 µM (inactive) | 4.52 µM (inactive) | 22.5 µM (inactive) | 3.59 µM (inactive) | 28.8 µM (inactive) | 18.8 µM (inactive) | 3.31 µM (inactive) | 9.55 µM (inactive) | 28.9 µM (inactive) | 20 µM (inactive) | 22.4 µM (inactive) | 17.2 µM (inactive) | 18.3 µM (inactive) | 17.5 µM (inactive) | 21.6 µM (inactive) | 41.3 µM (inactive) | 19.5 µM (inactive) |
| Cc1cc(C)c2c(=O)n(CC(O)CN3CCN(CCOCCO)CC3)sc2n1 (stereo not given) | 19.1 µM (inactive) | 20.2 µM (inactive) | 18.3 µM (inactive) | 20 µM (inactive) | 20.5 µM (inactive) | 21.9 µM (inactive) | 24.5 µM (inactive) | 28.4 µM (inactive) | 18.1 µM (inactive) | 25.8 µM (inactive) | 19.1 µM (inactive) | 28.5 µM (inactive) | 22 µM (inactive) | 19.7 µM (inactive) | 15.3 µM (inactive) | > 100 µM (inactive) | 19.1 µM (inactive) | 12.2 µM (inactive) | > 100 µM (inactive) | 18.8 µM (inactive) |
| O=C(O)/C=C/c1ccc2c(c1)CC1(Cc3ccccc3C1)C2 | > 100 µM (inactive) | – | 43.6 µM (inactive) | 41.6 µM (inactive) | 37.5 µM (inactive) | 75.3 µM (inactive) | 29.5 µM (inactive) | 49.5 µM (inactive) | 49.5 µM (inactive) | 23.2 µM (inactive) | > 100 µM (inactive) | > 100 µM (inactive) | 55.8 µM (inactive) | 39.3 µM (inactive) | 57 µM (inactive) | – | 39.8 µM (inactive) | > 100 µM (inactive) | 76.7 µM (inactive) | 78.2 µM (inactive) |
| COC(=O)C(Cc1ccccc1)NC(=O)CSc1nnc(COc2ccc(Cl)cc2)n1-c1ccccc1 (stereo not given) | 18.6 µM (inactive) | 16.5 µM (inactive) | 23.4 µM (inactive) | 16.4 µM (inactive) | 20.6 µM (inactive) | 17 µM (inactive) | 34 µM (inactive) | 15 µM (inactive) | 18.5 µM (inactive) | 5.41 µM (inactive) | 26.1 µM (inactive) | 26.7 µM (inactive) | 37.7 µM (inactive) | 17.7 µM (inactive) | 22.3 µM (inactive) | – | 23.4 µM (inactive) | 13.1 µM (inactive) | 21.8 µM (inactive) | 19.7 µM (inactive) |
| O=c1ssc(Cl)c1Nc1c(Cl)ssc1=O | 22.3 µM (inactive) | 18.8 µM (inactive) | 24.3 µM (inactive) | > 40 µM (inactive) | 7.85 µM (inactive) | 17.8 µM (inactive) | 2.25 µM (inactive) | 20.7 µM (inactive) | 19.5 µM (inactive) | 3.62 µM (inactive) | 9.2 µM (inactive) | 36.4 µM (inactive) | 17.3 µM (inactive) | 19.4 µM (inactive) | 19.9 µM (inactive) | 15.2 µM (inactive) | 22.4 µM (inactive) | 16.5 µM (inactive) | 27.2 µM (inactive) | 17.9 µM (inactive) |
| CC(=O)O[C@H]1C(=O)[C@@]2(C)C(C(OC(=O)c3ccccc3)[C@]3(O)CC(OC(=O)C(O)C(NC(=O)c4ccccc4)c4ccc(F)cc4)C(C)=C1C3(C)C)[C@]1(OC(C)=O)CO[C@@H]1C[C@@H]2O (stereo not given in full) | 0.00181 µM (active) | < 0.001 µM (active) | < 0.001 µM (active) | 0.0139 µM (active) | < 0.001 µM (active) | < 0.001 µM (active) | 0.00359 µM (active) | 0.00233 µM (active) | 0.00124 µM (active) | < 0.001 µM (active) | 0.00966 µM (active) | < 0.001 µM (active) | < 0.001 µM (active) | 0.00133 µM (active) | 0.0011 µM (active) | 0.0942 µM (active) | < 0.001 µM (active) | 1.17 µM (inactive) | 0.647 µM (active) | – |
| C=C(C)C(O)CCC1(C)C=Cc2c(c(C)cc3c2[nH]c2ccccc23)O1 (stereo not given) | 3.49 µM (inactive) | 5.42 µM (inactive) | 12.3 µM (inactive) | 4.86 µM (inactive) | 6.68 µM (inactive) | 13.6 µM (inactive) | 5.75 µM (inactive) | 4.75 µM (inactive) | 5.01 µM (inactive) | 8.47 µM (inactive) | 7.83 µM (inactive) | 3.17 µM (inactive) | 5.85 µM (inactive) | – | 10.7 µM (inactive) | – | 4.72 µM (inactive) | 8.17 µM (inactive) | 8.81 µM (inactive) | 11.3 µM (inactive) |
